Assays:
human GLP-1 receptor = target: T1, human GLP-1 receptor (Homo sapiens, UniProt P43220); experiment: Receptor binding assay: [125I]GLP-1 (aa 7-36) equilibrium radioligand binding; details: membranes from HEK-293 or CHO cells expressing the human GLP-1 receptor; room temp 120 min
T1 construct: expressed in transfected cells; host or cells: HEK-293 or CHO cells (membranes)
Description: Reactions were carried out in 96-well plates. Compound was diluted in 20% DMSO/water. The final assay concentration ranging from 0.1 nM to 100 uM in 2% final DMSO concentration was used. […] Plates were washed 5 times with cold 25 mM Tris-HCL, pH 7.5 containing 0.05% bovine serum albumin (BSA). Following filtration, 50 uL of Microscint PS (Packard part no. 6013631) was added, plates were sealed with TopSeal-A adhesive seals (Packard part no. 6005185). ^125I isotope bound to the Unifilter-96 GF/C plates was counted using a TopCount instrument (Packard).
Percent inhibition of [^125I] […] The IC50 values were calculated by fitting the data using parameters for a sigmoidal dose response, variable slope nonlinear regression (GraphPAD Prizm, San Diego, Calif.) according to the equation: Y=Bottom+(Top-Bottom)/(1+10^((Log EC50−X)*HillSlope)) wherein, X is the logarithm of concentration and Y is the response, and Y starts at Bottom and goes to Top with a sigmoid shape. This is identical to the four parameter logistic equation.

[1] = target: T2, cloned human GLP-1 receptor (Homo sapiens, UniProt P43220); experiment: Functional cell-based assay: cAMP functional assay; details: for Emax: 0.5 h, percentage relative to maximal GLP-1-induced cAMP accumulation, na = not active in the assay, read-out: % activation
T2 construct: expressed in transfected cells; host or cells: CHO or HEK-293 cells
T2 sequence (P43220 24-463): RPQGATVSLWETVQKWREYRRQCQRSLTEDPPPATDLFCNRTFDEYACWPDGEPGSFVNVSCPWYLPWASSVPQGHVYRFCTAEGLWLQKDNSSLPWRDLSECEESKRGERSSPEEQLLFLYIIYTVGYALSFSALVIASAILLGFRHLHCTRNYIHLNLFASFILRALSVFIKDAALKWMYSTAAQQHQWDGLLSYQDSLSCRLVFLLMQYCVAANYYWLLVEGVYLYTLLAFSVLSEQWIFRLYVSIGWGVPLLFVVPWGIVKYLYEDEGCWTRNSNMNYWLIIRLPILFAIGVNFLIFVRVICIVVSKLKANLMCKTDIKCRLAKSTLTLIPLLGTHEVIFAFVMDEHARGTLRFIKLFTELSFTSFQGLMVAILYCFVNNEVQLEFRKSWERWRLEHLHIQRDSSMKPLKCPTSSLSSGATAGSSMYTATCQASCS
Summary of the method: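 Monolayer cells incubated 30 min at 37 °C with compounds (0.0001–100 μM) in IMDM containing 100 μM RO 20-1724 PDE inhibitor, 0.1% BSA and 2% DMSO. cAMP measured by HTRF.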

T1 sequence (P43220 24-463): as above

Row | % binding vs [125I]GLP-1 (human GLP-1 receptor) [%] | EC50 [1] [nM] | Emax [1] [%] | Structure (SMILES)
1 | 60 |  |  | CC[C@H](c1ccccc1)N1Cc2cc3c(cc2C[C@H]1C(=O)N[C@@H](Cc1ccc(-c2ccc(C#N)cc2)cc1)C(=O)O)N(C)C(=O)[C@H](c1ccc(OCc2ccc(Cl)c(Cl)c2)cc1)O3 [Example 88, (S)-3-(4′-Cyano-biphenyl-4-yl)-2-{[(3S,7S)-3-[4-(3,4-dichloro-benzyloxy)-phenyl]-1-methyl-2-oxo-6-((R)-1-phenyl-propyl)-2,3,5,6,7,8-hexahydro-1H-4-oxa-1,6-diaza-anthracene-7-carbonyl]-amino}-propionic acid]
2 | 60 | 130 | 56 | N#Cc1ccc(-c2ccc(C[C@H](NC(=O)[C@@H]3Cc4cc5c(cc4CN3Cc3ccccn3)OC(c3ccc(OCc4ccc(Cl)c(Cl)c4)cc3)C(=O)N5)C(=O)O)cc2)cc1 (stereo partly drawn) [Example 39, (S)-3-(4′-Cyano-biphenyl-4-yl)-2-({(S)-3-[4-(3,4-dichloro-benzyloxy)-phenyl]-2-oxo-6-pyridin-2-ylmethyl-2,3,5,6,7,8-hexahydro-1H-4-oxa-1,6-diaza-anthracene-7-carbonyl}-amino)-propionic acid]
3 | 68 | 145 | 99.6 | N#Cc1ccc(-c2ccc(C[C@H](NC(=O)[C@@H]3Cc4cc5c(cc4CN3C(=O)c3ccccc3)OC(c3ccc(OCc4ccc(Cl)c(Cl)c4)cc3)C(=O)N5)C(=O)O)cc2)cc1 (stereo partly drawn) [Example 15, (S)-2-({(S)-6-Benzoyl-3-[4-(3,4-dichloro-benzyloxy)-phenyl]-2-oxo-2,3,5,6,7,8-hexahydro-1H-4-oxa-1,6-diaza-anthracene-7-carbonyl}-amino)-3-(4′-cyano-biphenyl-4-yl)-propionic acid]
4 | 65 | 364 | 49 | CC[C@@H](c1ccccc1)N1Cc2cc3c(cc2C[C@H]1C(=O)N[C@@H](Cc1ccc(-c2ccc(F)cc2)cc1)C(=O)O)N(C)C(=O)[C@H](c1ccc(OCc2ccc(Cl)c(Cl)c2)cc1)O3 [Example 95, (S)-2-{[(3S,7S)-3-[4-(3,4-Dichloro-benzyloxy)-phenyl]-1-methyl-2-oxo-6-((S)-1-phenyl-propyl)-2,3,5,6,7,8-hexahydro-1H-4-oxa-1,6-diaza-anthracene-7-carbonyl]-amino}-3-(4′-fluoro-biphenyl-4-yl)-propionic acid]
5 | 44 |  |  | CC[C@H](c1ccccc1)N1Cc2cc3c(cc2C[C@H]1C(=O)N[C@@H](Cc1ccc(-c2ccc(C#N)cc2)cc1)C(=O)O)N(C)C(=O)[C@@H](c1ccc(OCc2ccc(Cl)c(Cl)c2)cc1)O3 [Example 89]
6 |  | 1200 | 29 | N#Cc1ccc(-c2ccc(C[C@H](NC(=O)[C@@H]3Cc4cc5c(cc4CN3Cc3ncc[nH]3)OC(c3ccc(OCc4ccc(Cl)c(Cl)c4)cc3)C(=O)N5)C(=O)O)cc2)cc1 (stereo partly drawn) [Example 47, (S)-3-(4′-Cyano-biphenyl-4-yl)-2-{[(S)-3-[4-(3,4-dichloro-benzyloxy)-phenyl]-6-(1H-imidazol-2-ylmethyl)-2-oxo-2,3,5,6,7,8-hexahydro-1H-4-oxa-1,6-diaza-anthracene-7-carbonyl]-amino}-propionic acid]
7 |  | 1000 | 18 | N#Cc1ccc(-c2ccc(C[C@H](NC(=O)[C@@H]3Cc4cc5c(cc4CN3Cc3cccc(Br)n3)OC(c3ccc(OCc4ccc(Cl)c(Cl)c4)cc3)C(=O)N5)C(=O)O)cc2)cc1 (stereo partly drawn) [Example 45, (S)-2-({(S)-6-(6-Bromo-pyridin-2-ylmethyl)-3-[4-(3,4-dichloro-benzyloxy)-phenyl]-2-oxo-2,3,5,6,7,8-hexahydro-1H-4-oxa-1,6-diaza-anthracene-7-carbonyl}-amino)-3-(4′-cyano-biphenyl-4-yl)-propionic acid]

— US7906507B2, “Oxadiazoanthracene compounds for the treatment of diabetes” (TransTech Pharma, Inc., priority 2008, dated 2011)
